The record followed here is ChEMBL document CHEMBL5329212, “In situ click chemistry-based discovery of 1,2,3-triazole-derived diarylpyrimidines as novel HIV-1 NNRTIs by exploiting the tolerant region I in binding pocket” (Bioorg Med Chem, 2023).

Molecules are shown by their SMILES. pEC50, pIC50: −log10 of the molar value. Converted amounts (≈) assume the structure as drawn.

A word on the half-life: it is how long it takes for the measured level to halve. A high value points to slow loss. One may read the CC50 as the concentration giving 50% cytotoxicity. Usually pIC50 stands for the negative decadic logarithm of the IC50, by convention in mol/L. The inhibition is the relative decrease from the control value, in per cent. The term pEC50 denotes −log10 of the EC50, conventionally taken in molar units. By solubility is commonly meant the dissolved amount per volume that the medium holds. A lower solubility goes with a poorly soluble substance.

Data set [1] can be described thus: Half life in Wistar rat at 2 mg/kg, iv measured upto 8 hrs by LC-MS/MS analysis. In kind it is ADME, organism-based. The settings on record: in vivo.
Data set [2] in a line: Cytotoxicity against human MT4 cells assessed as reduction in cell viability measured after 5 days by MTT assay. The data set is classed as toxicity, cell-based. The settings on record: time 5 day. (In general: Formazan colour is commonly taken as a measure of viable cells.)
Data set [3] deals with Human immunodeficiency virus type 1 reverse transcriptase (Human immunodeficiency virus 1, UniProt Q72547). Description: Inhibition of HIV-1 reverse transcriptase incubated for 1 hrs in presence of biotin-labeled dNTPs by ELISA assay.
For data set [4], the target named is Human immunodeficiency virus type 1 reverse transcriptase (Human immunodeficiency virus 1) (UniProt Q72547). Briefly: Inhibition of HIV-1 reverse transcriptase at 0.267 uM incubated for 1 hrs in presence of biotin-labeled dNTPs by ELISA assay relative to control. On the technique in general: An ELISA detects its analyte on a solid surface through an enzyme-linked reagent.

Data set [5] concerns Human immunodeficiency virus 1. Description: Antiviral activity against HIV-1 harboring RT L100I mutant infected in human MT4 cells assessed as protection against virus-induced cytopathic effect measured after 5 days by MTT assay. The data set is classed as functional, organism-based. The settings on record: Human immunodeficiency virus 1, MT4, 120 h.
Data set [6] has as its system Human immunodeficiency virus 1. Description: Antiviral activity against HIV-1 harboring RT K103N mutant infected in human MT4 cells assessed as protection against virus-induced cytopathic effect measured after 5 days by MTT assay. The data set is classed as functional, organism-based. The settings on record: Human immunodeficiency virus 1, MT4, 120 h. For orientation: Protection from cytopathic effect is a common read-out in antiviral testing.

For data set [7], the system named is Human immunodeficiency virus 1. Description: Antiviral activity against HIV-1 harboring RT Y181C mutant infected in human MT4 cells assessed as protection against virus-induced cytopathic effect measured after 5 days by MTT assay. The settings on record: Human immunodeficiency virus 1, MT4, 120 h. The data set is classed as functional, organism-based.
Data set [8] deals with Human immunodeficiency virus 1. Description: Antiviral activity against HIV-1 harboring RT RES056 mutant infected in human MT4 cells assessed as protection against virus-induced cytopathic effect measured after 5 days by MTT assay. In kind it is functional, organism-based. The settings on record: Human immunodeficiency virus 1, MT4, 120 h.
The test system of data set [9] is Human immunodeficiency virus 1. Briefly: Antiviral activity against HIV-1 harboring RT F227L/V106A double mutant infected in human MT4 cells assessed as protection against virus-induced cytopathic effect measured after 5 days by MTT assay. In kind it is functional, organism-based. The settings on record: Human immunodeficiency virus 1, MT4, 120 h.
The test system of data set [10] is Human immunodeficiency virus 1. Description: Antiviral activity against wild type HIV-1 IIIB infected in human MT4 cells assessed as protection against virus-induced cytopathic effect measured after 5 days by MTT assay. In kind it is functional, organism-based. The settings on record: Human immunodeficiency virus 1, IIIB, MT4, 120 h.
The test system of data set [11] is Human immunodeficiency virus 1. Briefly: Antiviral activity against HIV-1 harboring RT E138K mutant infected in human MT4 cells assessed as protection against virus-induced cytopathic effect measured after 5 days by MTT assay. In kind it is functional, organism-based. The settings on record: Human immunodeficiency virus 1, MT4, 120 h.
In data set [12] the test system is Human immunodeficiency virus 1. Description: Antiviral activity against HIV-1 harboring RT Y188L mutant infected in human MT4 cells assessed as protection against virus-induced cytopathic effect measured after 5 days by MTT assay. In kind it is functional, organism-based. The settings on record: Human immunodeficiency virus 1, MT4, 120 h.
Data set [13] in a line: Aqueous solubility of the compound at pH 2 at 0.1 to 10 mg. The data set is classed as physicochemical. The settings on record: aqueous medium, dose 0.1-10 mg.
Data set [14] is described as follows: Aqueous solubility of the compound at pH 7.0 at 0.1 to 10 mg. In kind it is physicochemical. The settings on record: aqueous medium, dose 0.1-10 mg.
Data set [15] is described as follows: Aqueous solubility of the compound at pH 7.4 at 0.1 to 10 mg. In kind it is physicochemical. The settings on record: aqueous medium, dose 0.1-10 mg.

Regarding `Cc1cc(C#N)cc(C)c1Oc1nc(NC2CCN(Cc3ccc(S(N)(=O)=O)cc3)CC2)nc2ncsc12`, the half-life in data set [1] is 2 h.

In the case of `Cc1cc(C#N)cc(C)c1Oc1nc(Nc2ccc(-c3cn(Cc4ccc(B(O)O)cc4)nn3)cc2)nc2ccsc12`, the CC50 at 120 h in data set [2] is 13.4 µM. In addition, the negative logarithm of the IC50 (pIC50) in data set [3] was 6.38. Besides, the inhibition in data set [4] was found to be 50.8%. Further, the pEC50 in [5] was 5.61; in [6] it was 6.39; in data set [7] it was 5.31; in [8] it was at most 5.26; in data set [9], 5.39; in [10], 6.80. Besides, the pEC50 in data set [11] was 6.19; in data set [12] it was 5.50.

On to `Cc1cc(C#N)cc(C)c1Oc1nc(Nc2ccc(-c3cn(CC(=O)Nc4ccc(C(F)(F)F)cc4)nn3)cc2)nc2ccsc12`, for which, in data set [2], the CC50 at 120 h is over 195 µM. The negative logarithm of the IC50 (pIC50) in data set [3] is 5.56. Further, the inhibition in data set [4] came to 43.8%. For the same molecule, the pEC50 in data set [5] was 5.60; in data set [6] it was 5.55; in [7], 5.26; in data set [8] it was 4.63; in data set [9], 4.73; in data set [10] it was 5.69. The results for the pEC50 in data set [11] and in data set [12] were 5.18 and 4.76, respectively.

As for `Cc1cc(C#N)cc(C)c1Oc1nc(Nc2ccc(-c3cn(-c4ccc(C(N)=O)cc4)nn3)cc2)nc2ccsc12`, in data set [2], the half-maximal cytotoxic concentration (CC50) at 120 h amounted to 164 µM. Besides, the pIC50 in data set [3] is 6.10. Moreover, in data set [4], the inhibition stood at 66.9%. Besides, the negative-log EC50 (pEC50) in [5] is under 3.79; in [6] it was 6.60; in [7] it was under 3.79; in [8], under 3.79; in data set [9], under 3.79; in data set [10], 6.82. In addition, the values for the negative-log EC50 (pEC50) in data set [11] and in data set [12] were 6.04 and under 3.79, respectively.

Turning to `Cc1cc(C#N)cc(C)c1Oc1nc(Nc2ccc(-c3cn(S(=O)(=O)n4ccnc4)nn3)cc2)nc2ccsc12`, the CC50 at 120 h in data set [2] turned out to be 140 µM. In addition, the negative logarithm of the IC50 (pIC50) in [3] was 7.52. Besides, in data set [4], the inhibition stood at 66.5%. The negative logarithm of the EC50 (pEC50) in data set [5] was 7.10; in data set [6] it was 8.00; in data set [7], 6.80; in data set [8], at most 5.25; in data set [9], 6.59; in data set [10], 8.00. Moreover, the values for the pEC50 in data set [11] and in data set [12] were 7.52 and 6.60, respectively. Also, the solubility in data set [13] worked out at 0.102 mg/mL (≈ 179 µM); in data set [14], 0.0647 mg/mL (≈ 114 µM); in data set [15], 0.0442 mg/mL (≈ 77.6 µM).

Consider `Cc1cc(C#N)cc(C)c1Oc1nc(NC2CCN(Cc3ccc(S(N)(=O)=O)cc3)CC2)nc2scnc12`, for which the half-life in data set [1] was 0.9 h.

In the case of `Cc1cc(C#N)cc(C)c1Oc1nc(Nc2ccc(-c3cn(Cc4ccc(C(N)=O)cc4)nn3)cc2)nc2ccsc12`, the cytotoxic concentration (CC50) at 120 h in data set [2] was over 218 µM. For the same molecule, the negative logarithm of the IC50 (pIC50) in [3] was 6.60. Moreover, the inhibition in data set [4] worked out at 39.5%. In addition, the negative-log EC50 (pEC50) in [5] is 5.83; in data set [6] it was 7.10; in data set [7], 5.16; in data set [8], under 3.66; in data set [9], 5.15; in data set [10], 7.52. Further, the pEC50 in data set [11] was 6.82; in data set [12], 4.92.

As to `Cc1cc(C#N)cc(C)c1Oc1nc(Nc2ccc(-c3cn(CCN4C(=O)c5ccccc5C4=O)nn3)cc2)nc2ccsc12`, in data set [2], the half-maximal cytotoxic concentration (CC50) at 120 h is over 204 µM. The negative-log IC50 (pIC50) in data set [3] is 5.47. For the same molecule, the inhibition in [4] is 46.2%. Further, the pEC50 in data set [5] was 5.49; in data set [6], 5.68; in data set [7] it was 4.34; in [8], under 3.69; in [9], 3.91; in data set [10], 5.73. Also, the results for the negative logarithm of the EC50 (pEC50) in data set [11] and in data set [12] were 4.86 and at most 3.80, respectively.

Consider `Cc1cc(C#N)cc(C)c1Oc1nc(Nc2ccc(-c3cn(Cc4ccc(C(F)(F)F)cc4F)nn3)cc2)nc2ccsc12`, for which, in [2], the 50% cytotoxic concentration (CC50) at 120 h was 129 µM. Also, in data set [3], the pIC50 was 5.96. For the same molecule, the inhibition in data set [4] worked out at 63.6%. Further, the pEC50 in [5] is 5.63; in [6], 5.88; in data set [7], 5.43; in [8] it was 4.46; in data set [9], 4.66; in data set [10], 6.09. For the same molecule, the pEC50 in data set [11] is 5.61; in data set [12], 4.73.

`Cc1cc(C#N)cc(C)c1Oc1nc(Nc2ccc(-c3cn(Cc4ccc(C(F)(F)F)cc4)nn3)cc2)nc2ccsc12`: the CC50 at 120 h in [2] stood at 88.2 µM. Also, the negative logarithm of the IC50 (pIC50) in data set [3] was 6.35. Further, the inhibition in [4] worked out at 74.2%. Further, the pEC50 in [5] was 6.08; in data set [6] it was 6.48; in data set [7] it was 5.62; in data set [8], 4.59; in [9], 5.05; in data set [10], 6.72. Moreover, the values for the pEC50 in [11] and in data set [12] were 6.16 and 5.51, respectively.

`COC(=O)c1cccc(-n2cc(-c3ccc(Nc4nc(Oc5c(C)cc(C#N)cc5C)c5sccc5n4)cc3)nn2)c1`: the CC50 at 120 h in data set [2] was over 218 µM. Moreover, the pIC50 in data set [3] is 6.19. Moreover, the inhibition in [4] is 42.4%. In addition, the negative-log EC50 (pEC50) in data set [5] is 5.13; in data set [6] it was 5.76; in data set [7], 4.62; in data set [8] it was at most 3.81; in data set [9], 4.63; in data set [10], 5.90. Further, the figures for the pEC50 in [11] and in [12] were 5.30 and 4.23, respectively.

On to `Cc1cc(C#N)cc(C)c1Oc1nc(NC2CCN(Cc3ccc(S(N)(=O)=O)cc3)CC2)nc2ccsc12`, for which the inhibition in data set [4] is 39.1%. This molecule had a half-life in data set [1] of 1.6 h.

On to `Cc1cc(C#N)cc(C)c1Oc1nc(Nc2ccc(-c3cn(-c4ccc5c(c4)OCO5)nn3)cc2)nc2ccsc12`, for which the CC50 at 120 h in data set [2] was over 223 µM. Further, in data set [3], the negative logarithm of the IC50 (pIC50) is 5.98. In addition, the inhibition in data set [4] was found to be 50%. For the same molecule, the negative-log EC50 (pEC50) in data set [5] is 4.96; in data set [6], 5.70; in [7] it was 4.16; in data set [8] it was under 3.65; in [9], 4.11; in data set [10], 5.74. The pEC50 in data set [11] is 5.14; in [12] it was 3.78.
